Experiments:
PAT (pDAS1942) corn = experiment: T2 corn response to glufosinate applied postemergence; assay type: in vivo; conditions: 14DAT
[1] = test system: NT-1 tobacco suspension cells treated with DSM-2 (v2) (pDAB3778); experiment: NT-1 tobacco cell transformation, selection on bialaphos or glufosinate ammonium; assay type: cell-based
Procedure: Four days prior to transformation, a 1 week old NT-1 tobacco suspension, which was being subcultured every 7 days, was subcultured to fresh medium by adding 2 ml of the NT-1 culture or 1 ml of packed cells into 40 ml NT-1 B media. The subcultured suspension was maintained in the dark at 25±1° C. on a shaker at 125 rpm.
A 50% glycerol stock of Agrobacterium tumefaciens [strain LBA4404] harboring a binary vector of interest was used to initiate a liquid overnight culture by adding 20, 100, or 500 μl to 30 ml YEP liquid (10 g/L yeast extract, 10 g/L Peptone, 5 g/L NaCl, 0-10 g/L Sucrose) containing 50-100 mg/L spectinomycin. The bacterial culture was incubated in the dark at 28° C. in an incubator shaker at 150-250 rpm until the OD600 was 1.5+0.2. This took approximately 18-20 hrs.
For each vector tested, 20-70 mL of 4-day old suspension cells were transferred into a sterile vessel, to which 500-1750 μl of Agrobacterium suspension at the proper OD was added. To ensure a uniform mixture was achieved, the cells were pipetted up and down 5 times with a 10 ml wide-bore pipet. The uniform suspension was then drawn up into a 25 ml barrel of a repeat pipetter and 250 μl of the suspension was dispensed per well into 24-well plates, continuing until the suspension was exhausted. The well plates were wrapped in parafilm and cultured in the dark at 25±1° C. without shaking for a 3 day co-cultivation.
Following the co-cultivation, all excess liquid was removed from the individual wells with a 1 mL pipet tip, and remaining cells were resuspended in 1 ml NTC liquid (NT-1 B medium containing 500 mg/L carbenicillin, added after autoclaving). The contents of an individual well were dispersed across the entire surface of 100×25 mm selection plates using disposable transfer pipets. Selection media consisted of NTC media solidified with 8 g/l TC agar supplemented with 7.5 to 15 mg/L bialaphos or technical grade glufosinate ammonium, added after autoclaving. All selection plates, left unwrapped, were maintained in the dark at 28° C.
Putative transformants appeared as small clusters of callus on a background of dead, non-transformed cells. Calli were isolated approximately 2-6 weeks post-transformation. Each callus isolate was transferred to its own 60×20 mm plate containing the same selection medium and allowed to grow for approximately 2 weeks before being submitted for analysis.

[2] = test system: Escherichia coli BL21-Star (DE3) expressing DSM-2 (v2); experiment: Complementation of cell growth on glufosinate, pDAB4412 (DSM-2 v2); assay type: cell-based; design: bacterial growth on minimal media: key: −− = No Growth; +++ = Distinct Colony Growth; conditions: for bacterial growth on minimal media: 24 hrs @28 C, 20 uM IPTG
Procedure: The plasmids, pDAB4434, pDAB4412, and an empty pET vector (control) were transformed into Escherichia coli BL21-Star (DE3) bacterial cells. Expression cultures were initiated with 10-200 freshly transformed colonies into 250 mL LB medium containing 50 μg/ml antibiotic and 75 μM IPTG (isopropyl-[…]). The cultures were grown at 28° C. for 24 hours at 180-200 rpm. Five microliters of the culture was inoculated onto a complex media control and minimal media containing incrementally increasing concentrations of glufosinate and 20 μM IPTG. The cultures were dispersed evenly over the plates and incubated at 28° C. for 24 hours.

[3] = test system: Arabidopsis seed (wildtype, PAT, DSM-2 (v2)); experiment: DSM-2 (v2) as selectable marker: survival of sown seed after glufosinate spray; assay type: in vivo, Arabidopsis thaliana
Procedure: The ability to use DSM-2 (v2) as a selectable marker using glufosinate as the selection agent was analyzed with Arabidopsis transformed as described above. Approximately 100 T1 generation Arabidopsis seed (100-150 seeds) containing for DSM-2 (v2) or 2 mg homozygous T5 plants containing PAT were spiked into approximately 10,000 wildtype (sensitive) seed. Each tray of plants received two application timings of 280 g ai/ha glufosinate at the following treatment times: 7 DAP and 11 DAP. Treatments were applied with a DeVilbiss spray tip as previously described. Another 2 mg T1 generation Arabidopsis seed from each was sown and not sprayed as a comparison count. Plants were identified as Resistant or Sensitive 17 DAP.

[4] = 560 g ai/ha glufosinate postemergence
[5] = 2240 g ai/ha glufosinate postemergence

## CP(=O)(O)CCC(N)C(=O)O (centres unmarked) [glufosinate]
PAT (pDAS1942) corn; [4]
  % Injury Ave: 6%
  individuals with % Injury <20%: 4
PAT (pDAS1942) corn; 1120 g ai/ha glufosinate postemergence
  individuals with % Injury >40%: 3
PAT (pDAS1942) corn; [5]
  % Injury Ave: 25%
  individuals with % Injury 20-40%: 1
  individuals with % Injury <20%: 2
  individuals with % Injury >40%: 1
PAT (pDAS1942) corn; 4480 g ai/ha glufosinate postemergence
  individuals with % Injury <20%: 0
[1]; 7.5 mg/L selection agent
  Transformation frequency (% of selection plates producing at least one callus) after coding region PCR: 55.6%
[1]; 10 mg/L selection agent
  Transformation frequency (% of selection plates producing at least one callus) after coding region PCR: 50.0%
[1]; 12.5 mg/L selection agent
  Transformation frequency (% of selection plates producing at least one callus) after coding region PCR: 44.4%
[1]; 15 mg/L selection agent
  Transformation frequency (% of selection plates producing at least one callus) after coding region PCR: 38.9%
[2]; 250 μg/ml BASTA
  bacterial growth on minimal media: +++
[2]; 500 μg/ml BASTA
  bacterial growth on minimal media: +++
[2]; 1000 μg/ml BASTA
  bacterial growth on minimal media: +++
[2]; 2000 μg/ml BASTA
  bacterial growth on minimal media: +++
[2]; 4000 μg/ml BASTA
  bacterial growth on minimal media: +++
[2]; minimal media
  concentration in minimal media at which expression of DSM-2 complemented resistance: 400 µg/mL
[3]; 280 g ai/ha glufosinate 7 DAP and 11 DAP, Trt 1: 200 mg WT planted
  Number of Surviving Plants Following glufosinate Spray: 0
[3]; 280 g ai/ha glufosinate, Trt 2: 2 mg PAT planted
  Number of Surviving Plants Following glufosinate Spray: 154
[3]; 280 g ai/ha glufosinate, Trt 3: 200 mg WT + 2 mg PAT planted
  Number of Surviving Plants Following glufosinate Spray: 121
[3]; 280 g ai/ha glufosinate, Trt 4: 2 mg DSM-2 (v2) planted
  Number of Surviving Plants Following glufosinate Spray: 117
[3]; 280 g ai/ha glufosinate, Trt 5: 200 mg WT + 2 mg DSM-2 (v2) planted
  Number of Surviving Plants Following glufosinate Spray: 121

— US20110195845A1, “Constructs for Expressing Herbicide Tolerance Genes, Related Plants, and Related Trait Combinations” (Dow AgroSciences LLC, priority 2008, published 2011)
